Values joined by “and” are separate entries in the source; they are usually repeats but may differ in a detail not shown here. Identical values can stand only once. Toxic doses and inconclusive results are not listed.
Tested on: P388 leukemia ip, CD2F1 mice, survival T/C
Assay: NCI In Vivo Anticancer Drug Screen. Data for tumor model P388 Leukemia (intraperitoneal) in CD2F1 (CDF1) mice
Conditions: endpoint: median survival time, higher = longer survival
In short: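 Mice carrying the transplanted tumor received test compound or vehicle. Survival was recorded in each group, and the value is the treated-group measurement divided by that of the vehicle-treated control group.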

With `Cc1c2ccncc2c(C)c2c1[nH]c1ccccc12` the T/C (dose: 0.31 mg/kg/injection, schedule: Q04DX003 (iv), vehicle: water) was 99 % of control, the T/C (dose: 0.63 mg/kg/injection, schedule: Q04DX003 (iv), vehicle: water) was 107 % of control and the T/C (dose: 1.25 mg/kg/injection, schedule: Q04DX003 (iv), vehicle: water) was 99 % of control. For the same compound, the T/C (dose: 1.56 mg/kg/injection, schedule: Q04DX003 (ip), vehicle: distilled water + Tween-80) was 92 % of control, the T/C (dose: 2.5 mg/kg/injection, schedule: Q04DX003 (ip), vehicle: water) was 100 % of control and the T/C (dose: 2.5 mg/kg/injection, schedule: Q04DX003 (iv), vehicle: distilled water + Tween-80) was 107 % of control. The T/C (dose: 2.5 mg/kg/injection, schedule: Q04DX003 (iv), vehicle: water) was 94 % of control, the T/C (dose: 3.12 mg/kg/injection, schedule: Q04DX003 (ip), vehicle: distilled water + Tween-80) was 100 % of control and the T/C (dose: 3.13 mg/kg/injection, schedule: Q01DX009 (ip), vehicle: saline with Tween-80) was 154 % of control. The T/C (dose: 3.89 mg/kg/injection, schedule: Q04DX003 (ip), vehicle: clinical formulation) was 111 % of control, the T/C (dose: 5.0 mg/kg/injection, schedule: Q01DX005 (ip), vehicle: Klucel (hydroxypropylcellulose) (HPC)) was 156 % of control and the T/C (dose: 5.0 mg/kg/injection, schedule: Q04DX003 (ip), vehicle: distilled water + Tween-80) was 110 % of control. The T/C (dose: 5.0 mg/kg/injection, schedule: Q04DX003 (ip), vehicle: water) was 106 % of control and 110 % of control, the T/C (dose: 5.0 mg/kg/injection, schedule: Q04DX003 (iv), vehicle: distilled water + Tween-80) was 100 % of control and the T/C (dose: 5.0 mg/kg/injection, schedule: Q04DX003 (iv), vehicle: water) was 108 % of control. The T/C (dose: 6.25 mg/kg/injection, schedule: Q01DX009 (ip), vehicle: saline with Tween-80) was 181 % of control, the T/C (dose: 6.25 mg/kg/injection, schedule: Q04DX003 (ip), vehicle: clinical formulation) was 118 % of control and 119 % of control and the T/C (dose: 6.25 mg/kg/injection, schedule: Q04DX003 (ip), vehicle: distilled water + Tween-80) was 100 % of control and 121 % of control. The T/C (dose: 6.25 mg/kg/injection, schedule: Q04DX003 (ip), vehicle: saline with Tween-80) was 161 % of control, the T/C (dose: 6.25 mg/kg/injection, schedule: Q04DX003 (ip), vehicle: saline) was 112 % of control and the T/C (dose: 6.48 mg/kg/injection, schedule: Q04DX003 (ip), vehicle: clinical formulation) was 108 % of control. The T/C (dose: 8.0 mg/kg/injection, schedule: Q01DX005 (ip), vehicle: saline with Tween-80) was 160 % of control, the T/C (dose: 8.0 mg/kg/injection, schedule: Q01DX005 (iv), vehicle: saline with Tween-80) was 115 % of control and the T/C (dose: 10.0 mg/kg/injection, schedule: Q01DX005 (ip), vehicle: Klucel (hydroxypropylcellulose) (HPC)) was 153 % of control. The T/C (dose: 10.0 mg/kg/injection, schedule: Q01DX005 (ip), vehicle: saline with Tween-80) was 166 % of control, the T/C (dose: 10.0 mg/kg/injection, schedule: Q04DX003 (ip), vehicle: distilled water + Tween-80) was 118 % of control and the T/C (dose: 10.0 mg/kg/injection, schedule: Q04DX003 (ip), vehicle: water) was 112 % of control. For the same compound, the T/C (dose: 10.0 mg/kg/injection, schedule: Q04DX003 (iv), vehicle: distilled water + Tween-80) was 124 % of control, the T/C (dose: 10.0 mg/kg/injection, schedule: Q04DX003 (iv), vehicle: water) was 112 % of control and the T/C (dose: 10.8 mg/kg/injection, schedule: Q04DX003 (ip), vehicle: clinical formulation) was 110 % of control. The T/C (dose: 12.5 mg/kg/injection, schedule: Q01DX009 (ip), vehicle: saline with Tween-80) was 195 % of control and 204 % of control, the T/C (dose: 12.5 mg/kg/injection, schedule: Q04DX002 (ip), vehicle: Klucel (hydroxypropylcellulose) (HPC)) was 150 % of control and the T/C (dose: 12.5 mg/kg/injection, schedule: Q04DX003 (ip), vehicle: alkali diluted with water) was 164 % of control. The T/C (dose: 13.0 mg/kg/injection, schedule: Q04DX003 (ip), vehicle: water) was 123 % of control, the T/C (dose: 16.0 mg/kg/injection, schedule: Q01DX005 (ip), vehicle: saline with Tween-80) was 189 % of control and the T/C (dose: 16.0 mg/kg/injection, schedule: Q01DX005 (iv), vehicle: saline with Tween-80) was 117 % of control. For the same compound, the T/C (dose: 16.0 mg/kg/injection, schedule: Q01DX005 (oral), vehicle: saline with Tween-80) was 155 % of control, the T/C (dose: 18.0 mg/kg/injection, schedule: Q04DX003 (ip), vehicle: clinical formulation) was 110 % of control and the T/C (dose: 20.0 mg/kg/injection, schedule: Q01DX005 (ip), vehicle: Klucel (hydroxypropylcellulose) (HPC)) was 176 % of control and 177 % of control. The T/C (dose: 20.0 mg/kg/injection, schedule: Q01DX005 (ip), vehicle: saline with Tween-80) was 200 % of control, the T/C (dose: 20.0 mg/kg/injection, schedule: Q01DX005 (iv), vehicle: saline with Tween-80) was 111 % of control and the T/C (dose: 20.0 mg/kg/injection, schedule: Q04DX003 (ip), vehicle: distilled water + Tween-80) was 157 % of control. For the same compound, the T/C (dose: 20.0 mg/kg/injection, schedule: Q04DX003 (ip), vehicle: water) was 163 % of control, the T/C (dose: 21.6 mg/kg/injection, schedule: Q04DX002 (ip), vehicle: Klucel (hydroxypropylcellulose) (HPC)) was 171 % of control and the T/C (dose: 21.6 mg/kg/injection, schedule: Q04DX003 (ip), vehicle: water) was 150 % of control. The T/C (dose: 25.0 mg/kg/injection, schedule: Q01DX009 (ip), vehicle: saline with Tween-80) was 204 % of control, the T/C (dose: 25.0 mg/kg/injection, schedule: Q04DX002 (ip), vehicle: Klucel (hydroxypropylcellulose) (HPC)) was 153 % of control and the T/C (dose: 25.0 mg/kg/injection, schedule: Q04DX003 (ip), vehicle: alkali diluted with water) was 183 % of control. For the same compound, the T/C (dose: 25.0 mg/kg/injection, schedule: Q04DX003 (ip), vehicle: clinical formulation) was 178 % of control and 180 % of control, the T/C (dose: 25.0 mg/kg/injection, schedule: Q04DX003 (ip), vehicle: water) was 163 % of control and the T/C (dose: 30.0 mg/kg/injection, schedule: Q04DX003 (ip), vehicle: clinical formulation) was 198 % of control. The T/C (dose: 32.0 mg/kg/injection, schedule: Q01DX005 (ip), vehicle: saline with Tween-80) was 207 % of control, the T/C (dose: 32.0 mg/kg/injection, schedule: Q01DX005 (iv), vehicle: saline with Tween-80) was 162 % of control and the T/C (dose: 32.0 mg/kg/injection, schedule: Q01DX005 (oral), vehicle: saline with Tween-80) was 186 % of control. The T/C (dose: 36.0 mg/kg/injection, schedule: Q04DX002 (ip), vehicle: Klucel (hydroxypropylcellulose) (HPC)) was 191 % of control, the T/C (dose: 36.0 mg/kg/injection, schedule: Q04DX002 (ip), vehicle: saline with Tween-80) was 158 % of control and the T/C (dose: 36.0 mg/kg/injection, schedule: Q04DX003 (ip), vehicle: water) was 176 % of control. For the same compound, the T/C (dose: 40.0 mg/kg/injection, schedule: Q01DX005 (ip), vehicle: Klucel (hydroxypropylcellulose) (HPC)) was 202 % of control and 90 % of control, the T/C (dose: 40.0 mg/kg/injection, schedule: Q01DX005 (ip), vehicle: saline with Tween-80) was 227 % of control and the T/C (dose: 40.0 mg/kg/injection, schedule: Q04DX003 (ip), vehicle: distilled water + Tween-80) was 193 % of control. For the same compound, the T/C (dose: 40.0 mg/kg/injection, schedule: Q04DX003 (ip), vehicle: water) was 117 % of control, the T/C (dose: 43.2 mg/kg/injection, schedule: Q04DX002 (ip), vehicle: saline with Tween-80) was 176 % of control and the T/C (dose: 50.0 mg/kg/injection, schedule: Q01DX009 (ip), vehicle: saline with Tween-80) was 86 % of control. For the same compound, the T/C (dose: 50.0 mg/kg/injection, schedule: Q04DX002 (ip), vehicle: Klucel (hydroxypropylcellulose) (HPC)) was 168 % of control, the T/C (dose: 50.0 mg/kg/injection, schedule: Q04DX003 (ip), vehicle: alkali diluted with water) was 221 % of control and the T/C (dose: 50.0 mg/kg/injection, schedule: Q04DX003 (ip), vehicle: clinical formulation) was 181 % of control. For the same compound, the T/C (dose: 50.0 mg/kg/injection, schedule: Q04DX003 (ip), vehicle: water) was 167 % of control, the T/C (dose: 60.0 mg/kg/injection, schedule: Q04DX002 (ip), vehicle: Klucel (hydroxypropylcellulose) (HPC)) was 198 % of control and the T/C (dose: 60.0 mg/kg/injection, schedule: Q04DX002 (ip), vehicle: saline with Tween-80) was 161 % of control. The T/C (dose: 60.0 mg/kg/injection, schedule: Q04DX003 (ip), vehicle: water) was 219 % of control, the T/C (dose: 72.0 mg/kg/injection, schedule: Q04DX002 (ip), vehicle: saline with Tween-80) was 166 % of control and 199 % of control and the T/C (dose: 80.0 mg/kg/injection, schedule: Q04DX003 (ip), vehicle: distilled water + Tween-80) was 190 % of control and 254 % of control. The T/C (dose: 90.0 mg/kg/injection, schedule: Q04DX002 (ip), vehicle: saline with Tween-80) was 185 % of control and 190 % of control, the T/C (dose: 100.0 mg/kg/injection, schedule: Q04DX002 (ip), vehicle: Klucel (hydroxypropylcellulose) (HPC)) was 220 % of control and 230 % of control and the T/C (dose: 100.0 mg/kg/injection, schedule: Q04DX003 (ip), vehicle: alkali diluted with water) was 219 % of control. The T/C (dose: 100.0 mg/kg/injection, schedule: Q04DX003 (ip), vehicle: water) was 203 % of control, the T/C (dose: 120.0 mg/kg/injection, schedule: Q04DX002 (ip), vehicle: saline with Tween-80) was 157 % of control and 218 % of control and the T/C (dose: 134.0 mg/kg/injection, schedule: Q04DX002 (ip), vehicle: saline with Tween-80) was 211 % of control and 214 % of control. For the same compound, the T/C (dose: 167.0 mg/kg/injection, schedule: Q04DX002 (ip), vehicle: Klucel (hydroxypropylcellulose) (HPC)) was 207 % of control, the T/C (dose: 167.0 mg/kg/injection, schedule: Q04DX002 (ip), vehicle: saline with Tween-80) was 158 % of control and the T/C (dose: 200.0 mg/kg/injection, schedule: Q04DX002 (ip), vehicle: Klucel (hydroxypropylcellulose) (HPC)) was 88 % of control. The T/C (dose: 200.0 mg/kg/injection, schedule: Q04DX003 (ip), vehicle: alkali diluted with water) was 100 % of control and the T/C (dose: 300.0 mg/kg/injection, schedule: Q04DX002 (ip), vehicle: saline with Tween-80) was 165 % of control.

From PubChem BioAssay AID330 (DTP/NCI, 2004)
